One compound from publication PMC6774960, “Design, synthesis and biological evaluation of a series of new resveratrol analogues as potential anti-cancer agents” (Royal Society Open Science, 2019) can be followed below.

Format in all cases: cell-based, human
One data set concerns A549 cells. Nature of the data set: MTT anti-proliferation assay, A549. The following applies: average of three determinations. The method, then: The 22 synthesized resveratrol compounds were evaluated for anti-proliferative activities against three human cancer cell lines, including HepG2, A549 and HeLa cells, using 3-[4,5-dimethylthiazol-2-yl]-2,5 diphenyl tetrazolium bromide (MTT) assays. Paclitaxel, a well-known tubulin inhibitor, was used as a positive control. […] Therefore, the inhibitory activity of the compounds depended not only on the 2-position substitution of acrylic acid, but also on the 3-position substitution of acrylic acid.
(§1) The anti-proliferative and cytotoxicity activity was determined using MTT assay. Human cervical carcinoma HeLa cells, human hepatocellular carcinoma HepG2 cells, human lung carcinoma A549 cells were representative in the anti-proliferation assay, which were obtained from the Shanghai Institute of Cell Biology (Shanghai, China). Normal African green monkey kidney Vero cells were a gift from Dr Xiumiao He at Guangxi University for Nationalities. Normal human hepatocytes LO2 cells were a gift from Dr Xing Lin at Guangxi Medical University. The HepG2, Hela, LO2 and Vero cells were cultured in Dulbecco's modified Eagle's medium (DMEM, Gibco) and the A549 cells were cultured in RPMI1640 (Gibco), both media were supplemented with 10% fetal calf serum and antibiotics (100 IU ml^−1 penicillin, 100 IU ml^−1 streptomycin; Amresco).
(§2) Cells were seeded in 96-well microtiter plates at a density of 1 × 10^4 cells well^−1 and incubated with different concentrations of compound (6.25, 12.50, 25.00, 50.00 to 100.00 µM), cisplatin and paclitaxel in RPMI-1640 or DMEM at 37°C with 5% CO2. After 24 h, cell morphology was observed using a light microscope, and then 20 µl of MTT solution (5 mg ml^−1) was added to the well and incubated for 4 h, then cell survival was determined by measuring the optical density (OD) absorbance at a wavelength of 570 nm using an ELISA microplate reader. The inhibition rate (IR) following each compound treatment was determined by the following equation: IR (%) = (1 − ODexp/ODcon) × 100%, where ODexp and ODcon are the OD of the treated and untreated cells, respectively. Cisplatin and paclitaxel were used as positive control drugs.
On the technique in general: Tetrazolium dyes change colour on reduction, which living cells bring about.

The nature of data set [1]: MTT cytotoxicity test, LO2. The note with it: human, LO2 cells (normal human hepatocytes), average of three determinations. The protocol: Vero cells are non-tumorigenic cell lines and are important raw materials as the research and production of biological products. Vero cells show low tumorigenicity and had been approved for use in the production of human virus vaccines. Thus, Vero cells were chosen as a control for cytotoxicity. All compounds were evaluated for their cell toxicity against Vero and normal human hepatocytes cells line (LO2) using MTT assays.
as §1, §2

Data set [2] relates to HepG2 cells. The experiment in a line: Morphologic observation by light microscope. The following applies: HepG2, 15 and 45 µM, 24 h. The method, then:
Morphological observations can directly reflect the effects of drugs on cells. HepG2 cells were cultured with increasing concentrations of compound r (0, 5, 15 and 45 µM) for 24 h and observed using a light microscope. The cell morphology was clearly altered with the increase in drug concentration (figure 2).
Figure 2. Effect of compound r on the microscopic examination of HepG2 cells. Morphology of HepG2 treated with compound r (0, 5, 15 and 45 µM) and cisplatin (20 µM) for 24 h. Light microscopy photographs, with 40× objective.
as §2

The next data set concerns β-tubulin in HepG2 cells. Nature of the data set: Immunofluorescence microscopy assay of β-tubulin. The note with it: 24 h. The protocol: Resveratrol was previously reported to hamper microtubule function. To examine whether the anti-proliferative activity of compound r, a resveratrol derivative, was related to an interaction with tubulin, we examined β-tubulin in HepG2 cells treated with compound r and by immunofluorescence assay. Compound r ranging from 5 to 45 µM inhibited β-tubulin for 24 h (figure 3). […] In addition, after incubation with compound r (5, 15 and 45 µM), many cells became multinucleated. These phenomena were consistent with those observed with other microtubule-targeted drugs.
Figure 3. Compound r promoted microtubule depolymerization in HepG2 cells. The HepG2 cells were treated with 0, 5, 15 or 45 µM compound r for 24 h, microtubule networks and nuclei were observed by immunofluorescence microscopy assay.
HepG2 cells were cultured in DMEM supplemented with 10% fetal bovine serum on coverslips in 6-well plates and allowed to adhere for at least 12 h. Cells were then incubated in the presence or absence of compound r (0, 5, 15, 45 µM) for 24 h. Control cells were incubated with vehicle alone. […] Cell nuclei were stained with 4,6-diamidino-2-phenylindole (DAPI) and then images were obtained with a fluorescence microscope equipped with a motorized image capture system. […]

Data set [3] deals with HepG2 cells. Nature of the data set: Cell cycle assay by flow cytometry. The following applies: 24 h, mean ± s.d. The protocol:
To evaluate the effects of compound r on cell cycle progression of HepG2, cells were treated with compound r at different concentrations (0, 5, 15 and 45 µM) for 24 h and then examined by flow cytometry. The accumulation of cells in S phase increased with increasing concentration of compound r. Approximately 18.36 ± 1.93%, 19.39 ± 2.06%, 29.9 ± 0.87% and 34.24 ± 1.00% of cells were arrested in S phase in response to 0, 5, 15 and 45 µM compound r, respectively. In comparison, 39.56 ± 0.97% cells were arrested in S phase after treatment with 20 µM cisplatin for 24 h.
Figure 5. Cells treated with 0, 5, 15 and 45 µM compound r for 24 h were collected and analysed by flow cytometry. Images were representative of three independent experiments. Values represented the mean ± s.d.; versus blank, *p < 0.01, **p < 0.001; versus control ^#p < 0.01, ^##p < 0.001.
Cells were treated with compound r (0, 5, 15, 45 µM) or 20 µM of cisplatin as the control for 24 h. Cells were collected by centrifugation (1000 rpm, 5 min), washed with PBS and fixed with 70% ice-cold ethanol overnight at 4°C. The cell cycle was examined on a flow cytometer using a cell cycle analysis kit (Beyotime Biotechnologyin, China) in accordance with the manufacturer's instructions.
In general terms: In flow cytometry, cells or beads pass a laser one at a time.

`COc1ccc(C(=Cc2cc(C(F)(F)F)ccc2Cl)C(=O)O)cc1` [compound r, 3-(2-chloro-5-(trifluoromethyl)phenyl)-2-(4-methoxyphenyl) acrylic acid]: the IC50 (in general, the concentration needed to halve the response being measured) with A549 cells (24 h) amounted to 3.8 ± 0.3 µM; in the data set on A549 cells (Homo sapiens, A549, 24 h), 3.77 µM. The CC50 (commonly the concentration at which the toxic effect on the cells reaches its halfway point) at 24 h in data set [1] is over 100 µM. In the data set on HepG2 cells [2], the cell morphology entry is “shrinkage, rounding and detachment from the plate surface”. The “microtubule network / cytoskeleton appearance” value is recorded as “microtubules appeared depolymerized” in the data set on β-tubulin in HepG2 cells (HepG2, 45 µM); “highly abnormal cytoskeleton” with β-tubulin in HepG2 cells (HepG2, 5 and 15 µM). In addition, the “cells arrested in S phase” value with HepG2 cells [3] (HepG2, 5 µM) is recorded as about 19.39 ± 2.06%; in the data set with HepG2 cells [3] (HepG2, 15 µM) it was about 29.9 ± 0.87%; in the data set with HepG2 cells [3] (HepG2, 45 µM) it was about 34.24 ± 1.00%.
